Reference: ChEMBL document CHEMBL1146685, “The difluoromethylene group as a replacement for the labile oxygen in steroid sulfates: a new approach to steroid sulfatase inhibitors” (Bioorg Med Chem Lett, 2004)

Experiments:
Steryl-sulfatase [1] = biological target: T1, Steryl-sulfatase (Homo sapiens, UniProt P08842); assay: (§1) Inhibitory activity against steroid sulfatase (STS)
T1 sequence (P08842 whole entry): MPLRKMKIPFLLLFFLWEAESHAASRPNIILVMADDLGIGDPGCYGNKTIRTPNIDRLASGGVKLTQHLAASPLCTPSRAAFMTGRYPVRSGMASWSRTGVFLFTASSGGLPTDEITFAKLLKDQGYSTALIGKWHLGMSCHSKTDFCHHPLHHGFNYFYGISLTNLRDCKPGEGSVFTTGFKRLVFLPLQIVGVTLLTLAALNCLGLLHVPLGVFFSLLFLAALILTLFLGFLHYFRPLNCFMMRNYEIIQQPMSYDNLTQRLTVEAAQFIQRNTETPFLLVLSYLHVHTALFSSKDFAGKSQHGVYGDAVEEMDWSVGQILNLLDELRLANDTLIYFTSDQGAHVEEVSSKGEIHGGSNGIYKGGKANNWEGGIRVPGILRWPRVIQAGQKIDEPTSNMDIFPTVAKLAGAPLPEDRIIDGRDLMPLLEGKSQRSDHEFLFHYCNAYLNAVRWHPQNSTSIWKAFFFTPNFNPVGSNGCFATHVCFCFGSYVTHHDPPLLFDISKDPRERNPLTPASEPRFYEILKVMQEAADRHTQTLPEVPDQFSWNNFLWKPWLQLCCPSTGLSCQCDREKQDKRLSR

Steryl-sulfatase [2] = biological target: T1, Steryl-sulfatase; assay: Competitive inhibitory activity against steroid sulfatase (STS)
[3] = biological target: T2, Steryl-sulfatase (Homo sapiens) (UniProt P08842); assay: as §1
T2 sequence (whole entry): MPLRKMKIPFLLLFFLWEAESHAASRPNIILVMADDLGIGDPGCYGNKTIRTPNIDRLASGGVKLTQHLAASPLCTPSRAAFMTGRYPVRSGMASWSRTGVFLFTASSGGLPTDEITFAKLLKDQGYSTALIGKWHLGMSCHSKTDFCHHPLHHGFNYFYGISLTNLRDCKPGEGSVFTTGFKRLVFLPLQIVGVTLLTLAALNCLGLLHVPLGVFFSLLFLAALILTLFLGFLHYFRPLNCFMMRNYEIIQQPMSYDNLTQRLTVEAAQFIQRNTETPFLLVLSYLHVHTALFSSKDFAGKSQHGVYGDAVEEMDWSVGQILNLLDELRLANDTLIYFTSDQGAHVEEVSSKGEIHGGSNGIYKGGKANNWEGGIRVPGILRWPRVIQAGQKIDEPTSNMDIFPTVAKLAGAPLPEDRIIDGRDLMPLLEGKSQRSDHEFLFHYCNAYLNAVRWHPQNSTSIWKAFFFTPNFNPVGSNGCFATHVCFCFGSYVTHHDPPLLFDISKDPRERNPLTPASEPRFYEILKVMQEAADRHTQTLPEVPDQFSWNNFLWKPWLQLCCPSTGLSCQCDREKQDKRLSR

[4] = biological target: T2, Steryl-sulfatase (Homo sapiens)
Steryl-sulfatase [5] = biological target: T1, Steryl-sulfatase; assay: Inhibitory activity against steroid sulfatase (STS) using methodology of Li et al.
[6] = substrate: C[C@]12CC[C@@H]3c4ccc(OS(=O)(=O)O)cc4CC[C@H]3[C@@H]1CCC2=O; assay: Michaelis-Menten constant steroid sulfatase (STS) was determined

C[C@]12CC[C@@H]3c4ccc(C(F)(F)S(=O)(=O)O)cc4CC[C@H]3[C@@H]1CC/C2=C\O
Ki (Steryl-sulfatase [1]): 37 µM

C[C@]12CC[C@@H]3c4ccc(CS(=O)(=O)O)cc4CC[C@H]3[C@@H]1CC/C2=C\O
Ki (Steryl-sulfatase [1]): 140 µM

C[C@]12CC[C@@H]3c4ccc(C(F)(F)C5N=NN=N5)cc4CC[C@H]3[C@@H]1CCC2=O
Ki (Steryl-sulfatase [2]): 16 µM

C[C@]12CC[C@@H]3c4ccc(Cc5nnn[nH]5)cc4CCC3[C@@H]1CCC2=O (single isomer, unassigned)
Ki (Steryl-sulfatase [1]): 72.7 µM
Alpha Ki [3]: 213 µM

C[C@]12CC[C@@H]3c4ccc(CS(=O)(=O)O)cc4CCC3[C@@H]1CCC2=O (single isomer, unassigned)
Ki (Steryl-sulfatase [1]): 140 µM
Alpha Ki [4]: 1380 µM
Ki (Steryl-sulfatase [5]): 600 µM

C[C@]12CC[C@@H]3c4ccc(C(F)(F)S(=O)(=O)O)cc4CCC3[C@@H]1CCC2=O (single isomer, unassigned)
Ki (Steryl-sulfatase [2]): 57 µM

B1: Steryl-sulfatase (Homo sapiens), P08842 (protein)
chain: MPLRKMKIPFLLLFFLWEAESHAASRPNIILVMADDLGIGDPGCYGNKTIRTPNIDRLASGGVKLTQHLAASPLCTPSRAAFMTGRYPVRSGMASWSRTGVFLFTASSGGLPTDEITFAKLLKDQGYSTALIGKWHLGMSCHSKTDFCHHPLHHGFNYFYGISLTNLRDCKPGEGSVFTTGFKRLVFLPLQIVGVTLLTLAALNCLGLLHVPLGVFFSLLFLAALILTLFLGFLHYFRPLNCFMMRNYEIIQQPMSYDNLTQRLTVEAAQFIQRNTETPFLLVLSYLHVHTALFSSKDFAGKSQHGVYGDAVEEMDWSVGQILNLLDELRLANDTLIYFTSDQGAHVEEVSSKGEIHGGSNGIYKGGKANNWEGGIRVPGILRWPRVIQAGQKIDEPTSNMDIFPTVAKLAGAPLPEDRIIDGRDLMPLLEGKSQRSDHEFLFHYCNAYLNAVRWHPQNSTSIWKAFFFTPNFNPVGSNGCFATHVCFCFGSYVTHHDPPLLFDISKDPRERNPLTPASEPRFYEILKVMQEAADRHTQTLPEVPDQFSWNNFLWKPWLQLCCPSTGLSCQCDREKQDKRLSR
Km [6]: 21 µM
